PubChem BioAssay (NCI)
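The concentration for 50% growth inhibition is given as GI50. TGI: concentration producing complete growth inhibition.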

Tests used:
Test in all cases: NCI tumour cell line growth inhibition, 384-well format
786-0 renal = test system: 786-0 renal
A498 renal = test system: A498 renal
A549 NSCLC = test system: A549 NSCLC
ACHN renal = test system: ACHN renal
BT-549 breast = test system: BT-549 breast
CAKI-1 renal = test system: CAKI-1 renal
CCRF-CEM leukemia = test system: CCRF-CEM leukemia
COLO 205 colon = test system: COLO 205 colon
DU-145 prostate = test system: DU-145 prostate
EKVX NSCLC = test system: EKVX NSCLC
HCC-2998 colon = test system: HCC-2998 colon
HCT-15 colon = test system: HCT-15 colon
HL-60(TB) leukemia = test system: HL-60(TB) leukemia
HOP-62 NSCLC = test system: HOP-62 NSCLC
HOP-92 NSCLC = test system: HOP-92 NSCLC
HS 578T breast = test system: HS 578T breast
HT29 colon = test system: HT29 colon
IGROV1 ovarian = test system: IGROV1 ovarian
KM12 colon = test system: KM12 colon
M14 melanoma = test system: M14 melanoma
MALME-3M melanoma = test system: MALME-3M melanoma
MCF7 breast = test system: MCF7 breast
MDA-MB-231 breast = test system: MDA-MB-231 breast
MDA-MB-435 melanoma = test system: MDA-MB-435 melanoma
MDA-MB-468 breast = test system: MDA-MB-468 breast
MOLT-4 leukemia = test system: MOLT-4 leukemia
NCI-H226 lung = test system: NCI-H226 lung
NCI-H23 lung = test system: NCI-H23 lung
NCI-H322M lung = test system: NCI-H322M lung
NCI-H460 NSCLC = test system: NCI-H460 NSCLC
NCI-H522 lung = test system: NCI-H522 lung
NCI/ADR-RES ovarian = test system: NCI/ADR-RES ovarian
OVCAR-3 ovarian = test system: OVCAR-3 ovarian
OVCAR-4 ovarian = test system: OVCAR-4 ovarian
OVCAR-5 ovarian = test system: OVCAR-5 ovarian
OVCAR-8 ovarian = test system: OVCAR-8 ovarian
PC-3 prostate = test system: PC-3 prostate
RPMI-8226 leukemia = test system: RPMI-8226 leukemia
RXF 393 renal = test system: RXF 393 renal
SF-268 CNS = test system: SF-268 CNS
SF-295 CNS = test system: SF-295 CNS
SF-539 CNS = test system: SF-539 CNS
SK-MEL-2 melanoma = test system: SK-MEL-2 melanoma
SK-MEL-28 melanoma = test system: SK-MEL-28 melanoma
SK-MEL-5 melanoma = test system: SK-MEL-5 melanoma
SK-OV-3 ovarian = test system: SK-OV-3 ovarian
SN12C renal = test system: SN12C renal
SNB-19 CNS = test system: SNB-19 CNS
SNB-75 CNS = test system: SNB-75 CNS
SR leukemia = test system: SR leukemia
SW-620 colon = test system: SW-620 colon
T-47D breast = test system: T-47D breast
TK-10 renal = test system: TK-10 renal
U251 glioblastoma = test system: U251 glioblastoma
UACC-257 melanoma = test system: UACC-257 melanoma
UACC-62 melanoma = test system: UACC-62 melanoma
LOX IMVI melanoma = test system: LOX IMVI melanoma
UO-31 renal = test system: UO-31 renal

C/C=C/C/C=C/CCC(=O)[C@H]1O[C@H]1C(N)=O
GI50 (786-0 renal): 14.4 µM | TGI (786-0 renal): 28.2 µM | GI50 (A498 renal): 17.7 µM | TGI (A498 renal): 31.7 µM | GI50 (A549 NSCLC): 16.6 µM | TGI (A549 NSCLC): 30.4 µM | GI50 (ACHN renal): 16.9 µM | TGI (ACHN renal): 30.7 µM | GI50 (BT-549 breast): 3.21 µM | TGI (BT-549 breast): 12.8 µM | GI50 (CAKI-1 renal): 14 µM | TGI (CAKI-1 renal): 27 µM | GI50 (CCRF-CEM leukemia): 3.26 µM | TGI (CCRF-CEM leukemia): 11.3 µM | GI50 (COLO 205 colon): 21 µM | TGI (COLO 205 colon): 35.4 µM | GI50 (DU-145 prostate): 12.7 µM | TGI (DU-145 prostate): 25.4 µM | GI50 (EKVX NSCLC): 6.48 µM | TGI (EKVX NSCLC): 18.9 µM | GI50 (HCC-2998 colon): 12.7 µM | TGI (HCC-2998 colon): 25.3 µM | GI50 (HCT-15 colon): 6.61 µM | TGI (HCT-15 colon): 19.6 µM | GI50 (HL-60(TB) leukemia): 7.3 µM | TGI (HL-60(TB) leukemia): 19.3 µM | GI50 (HOP-62 NSCLC): 1.34 µM | TGI (HOP-62 NSCLC): 5.19 µM | GI50 (HOP-92 NSCLC): 11.5 µM | TGI (HOP-92 NSCLC): 23.9 µM | GI50 (HS 578T breast): 8.38 µM | TGI (HS 578T breast): 21 µM | GI50 (HT29 colon): 18.1 µM | TGI (HT29 colon): 32.7 µM | GI50 (IGROV1 ovarian): 14.6 µM | TGI (IGROV1 ovarian): 28.8 µM | GI50 (KM12 colon): 13 µM | TGI (KM12 colon): 26.1 µM | GI50 (M14 melanoma): 12.2 µM | TGI (M14 melanoma): 25 µM | GI50 (MALME-3M melanoma): 12.7 µM | TGI (MALME-3M melanoma): 25.3 µM | GI50 (MCF7 breast): 5.89 µM | TGI (MCF7 breast): 18.4 µM | GI50 (MDA-MB-231 breast): 11.6 µM | TGI (MDA-MB-231 breast): 24.5 µM | GI50 (MDA-MB-435 melanoma): 16 µM | TGI (MDA-MB-435 melanoma): 30 µM | GI50 (MDA-MB-468 breast): 2.17 µM | TGI (MDA-MB-468 breast): 4.86 µM | GI50 (MOLT-4 leukemia): 4.91 µM | TGI (MOLT-4 leukemia): 16.9 µM | GI50 (NCI-H226 lung): 7.61 µM | TGI (NCI-H226 lung): 19.7 µM | GI50 (NCI-H23 lung): 3.72 µM | TGI (NCI-H23 lung): 12.7 µM | GI50 (NCI-H322M lung): 17.8 µM | TGI (NCI-H322M lung): 31.9 µM | GI50 (NCI-H460 NSCLC): 12.3 µM | TGI (NCI-H460 NSCLC): 25 µM | GI50 (NCI-H522 lung): 3.29 µM | TGI (NCI-H522 lung): 11.3 µM | GI50 (NCI/ADR-RES ovarian): 15.4 µM | TGI (NCI/ADR-RES ovarian): 31.1 µM | GI50 (OVCAR-3 ovarian): 12.3 µM | TGI (OVCAR-3 ovarian): 24.8 µM | GI50 (OVCAR-4 ovarian): 3.76 µM | TGI (OVCAR-4 ovarian): 15.6 µM | GI50 (OVCAR-5 ovarian): 17.6 µM | TGI (OVCAR-5 ovarian): 33.2 µM | GI50 (OVCAR-8 ovarian): 14.2 µM | TGI (OVCAR-8 ovarian): 27.7 µM | GI50 (PC-3 prostate): 11.1 µM | TGI (PC-3 prostate): 23.4 µM | GI50 (RPMI-8226 leukemia): 2.82 µM | TGI (RPMI-8226 leukemia): 6.86 µM | GI50 (RXF 393 renal): 0.407 µM | TGI (RXF 393 renal): 3.86 µM | GI50 (SF-268 CNS): 14.9 µM | TGI (SF-268 CNS): 30 µM | GI50 (SF-295 CNS): 11.9 µM | TGI (SF-295 CNS): 24.6 µM | GI50 (SF-539 CNS): 13.8 µM | TGI (SF-539 CNS): 27.5 µM | GI50 (SK-MEL-2 melanoma): 8.59 µM | TGI (SK-MEL-2 melanoma): 20.3 µM | GI50 (SK-MEL-28 melanoma): 16.3 µM | TGI (SK-MEL-28 melanoma): 30.2 µM | GI50 (SK-MEL-5 melanoma): 7.25 µM | TGI (SK-MEL-5 melanoma): 19.8 µM | GI50 (SK-OV-3 ovarian): 16.7 µM | TGI (SK-OV-3 ovarian): 33.2 µM | GI50 (SN12C renal): 13.4 µM | TGI (SN12C renal): 26.4 µM | GI50 (SNB-19 CNS): 14.1 µM | TGI (SNB-19 CNS): 28.2 µM | GI50 (SNB-75 CNS): 2.19 µM | TGI (SNB-75 CNS): 7.15 µM | GI50 (SR leukemia): 2.21 µM | TGI (SR leukemia): 4.91 µM | GI50 (SW-620 colon): 14 µM | TGI (SW-620 colon): 27.3 µM | GI50 (T-47D breast): 5.89 µM | TGI (T-47D breast): 17.6 µM | GI50 (TK-10 renal): 18.1 µM | TGI (TK-10 renal): 32.1 µM | GI50 (U251 glioblastoma): 11.7 µM | TGI (U251 glioblastoma): 24.7 µM | GI50 (UACC-257 melanoma): 3.27 µM | TGI (UACC-257 melanoma): 9.64 µM | GI50 (UACC-62 melanoma): 12.8 µM | TGI (UACC-62 melanoma): 27.1 µM

CC(=O)O[C@@]12CO[C@@H]1C[C@H](O)[C@@]1(C)C(=O)[C@H](O)C3=C(C)[C@@H](OC(=O)[C@H](O)[C@@H](NC(=O)OC(C)(C)C)c4ccccc4)C[C@@](O)([C@@H](OC(=O)c4ccccc4)[C@H]21)C3(C)C
TGI (A498 renal): 18.7 µM | TGI (A549 NSCLC): 29.1 µM | GI50 (ACHN renal): 0.0201 µM | TGI (ACHN renal): 20.9 µM | TGI (CAKI-1 renal): 18 µM | TGI (EKVX NSCLC): 35.8 µM | GI50 (HCT-15 colon): < 0.0151 µM | TGI (HCT-15 colon): 1.79 µM | TGI (HOP-62 NSCLC): 17.3 µM | TGI (HOP-92 NSCLC): 33.2 µM | TGI (IGROV1 ovarian): 27.8 µM | TGI (KM12 colon): 24 µM | TGI (LOX IMVI melanoma): 17.4 µM | GI50 (MALME-3M melanoma): 12 µM | TGI (MALME-3M melanoma): 24.8 µM | TGI (MCF7 breast): 24.7 µM | TGI (NCI-H226 lung): 22.5 µM | TGI (NCI-H23 lung): 27.3 µM | TGI (NCI-H322M lung): 31.3 µM | GI50 (NCI/ADR-RES ovarian): 0.782 µM | TGI (NCI/ADR-RES ovarian): 2.26 µM | TGI (OVCAR-4 ovarian): 39.9 µM | TGI (OVCAR-5 ovarian): 36.3 µM | TGI (PC-3 prostate): 37.5 µM | TGI (RXF 393 renal): < 0.0108 µM | TGI (SF-268 CNS): 36.1 µM | TGI (SK-OV-3 ovarian): > 100 µM | TGI (SN12C renal): 21.2 µM | TGI (SNB-19 CNS): > 70.7 µM | TGI (T-47D breast): > 100 µM | GI50 (TK-10 renal): < 0.0143 µM | TGI (TK-10 renal): > 47.4 µM | TGI (UACC-257 melanoma): 31.6 µM | GI50 (UO-31 renal): 0.0791 µM | TGI (UO-31 renal): 51.8 µM
